# From ChEMBL document CHEMBL1201862, “PubChem BioAssay data set” (2004)
# Active and inactive are the calls of the source.
# How the values were obtained:
# [1] = target: T1, Leucine aminopeptidase (Plasmodium falciparum 3D7, UniProt Q8IL11); assay: P. falciparum M17LAP inhibitors, primary screen, biochemical, fluorogenic H-Leu-NHMec substrate, 1536-well (AID 1619); format: functional
# T1 sequence (Q8IL11 whole entry): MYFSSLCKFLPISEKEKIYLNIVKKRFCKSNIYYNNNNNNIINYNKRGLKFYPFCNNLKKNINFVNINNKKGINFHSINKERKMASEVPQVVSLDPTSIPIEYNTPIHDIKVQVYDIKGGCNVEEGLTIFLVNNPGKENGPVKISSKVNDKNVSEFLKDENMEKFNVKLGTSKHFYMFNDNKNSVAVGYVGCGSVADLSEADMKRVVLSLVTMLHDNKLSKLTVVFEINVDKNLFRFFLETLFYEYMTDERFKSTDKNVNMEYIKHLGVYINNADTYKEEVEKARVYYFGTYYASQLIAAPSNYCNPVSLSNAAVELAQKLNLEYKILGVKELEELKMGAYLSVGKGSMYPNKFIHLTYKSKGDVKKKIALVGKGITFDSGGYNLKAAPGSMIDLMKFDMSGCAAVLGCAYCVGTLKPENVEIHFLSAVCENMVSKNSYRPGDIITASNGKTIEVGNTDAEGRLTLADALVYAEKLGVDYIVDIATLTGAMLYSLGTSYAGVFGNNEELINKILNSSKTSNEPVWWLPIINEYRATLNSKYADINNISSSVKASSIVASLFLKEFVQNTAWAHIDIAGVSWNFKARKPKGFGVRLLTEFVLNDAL
# [2] = Luminescence Cell-Based Dose Response HTS to Identify Activators of Luciferase Translation or Activity in H4 […] Cells. [Related pubchem assays: 1829 (Project Summary), 1814 (Primary HTS)]; format: functional
# [3] = test system: H4; assay: Luminescence Cell-Based Dose Response HTS to Identify Activators of 5'UTR Stem-Loop Driven Prion Protein mRNA Translation in H4 Neuroglioblastoma Cells. [Related pubchem assays: 1829 (Project Summary), 1814 (Primary HTS)]; format: functional; details: Homo sapiens
# [4] = Luminescence Cell-Based Dose Confirmation HTS to Identify Activators of 5'UTR Stem-Loop Driven Alpha-Synuclein mRNA Translation in H4 Neuroglioblastoma Cells. [Related pubchem assays: 1829 (Project Summary), 1814 (Primary HTS)]; format: functional
# [5] = Luminescence Cell-Based Dose Confirmation HTS to Identify Inhibitors of Platelet Dense Granule Release. [Related pubchem assays: 1663 (Primary HTS), 1678 (Summary of Project)]; format: functional
# [6] = target: Luciferin 4-monooxygenase (Photinus pyralis, UniProt P08659); assay: inhibition of purified Photinus pyralis luciferase – biochemical, luminescence, dose response (AID 1891)
# Sequence of Luciferin 4-monooxygenase (P08659 whole entry): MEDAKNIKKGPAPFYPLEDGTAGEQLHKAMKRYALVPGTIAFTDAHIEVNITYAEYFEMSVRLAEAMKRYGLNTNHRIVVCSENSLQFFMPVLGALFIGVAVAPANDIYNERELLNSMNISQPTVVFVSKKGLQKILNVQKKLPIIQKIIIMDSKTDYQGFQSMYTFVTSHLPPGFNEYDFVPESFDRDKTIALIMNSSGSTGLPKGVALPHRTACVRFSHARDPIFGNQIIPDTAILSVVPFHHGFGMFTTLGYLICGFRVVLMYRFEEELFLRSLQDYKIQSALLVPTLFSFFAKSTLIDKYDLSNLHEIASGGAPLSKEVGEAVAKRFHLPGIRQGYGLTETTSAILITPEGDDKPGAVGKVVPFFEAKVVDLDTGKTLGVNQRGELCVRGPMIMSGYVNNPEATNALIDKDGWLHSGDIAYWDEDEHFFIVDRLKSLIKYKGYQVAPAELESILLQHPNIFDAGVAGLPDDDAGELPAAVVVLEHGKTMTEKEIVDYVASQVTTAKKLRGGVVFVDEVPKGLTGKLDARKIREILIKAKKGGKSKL
# [7] = cells; format: functional, cell-based
# [8] = cells; format: functional, cell-based; remark: listed apart in the source
# [9] = target: Cytochrome P450 2C19 (Homo sapiens, UniProt P33261); assay: Cytochrome panel assay with activity outcomes. Panel member name: p450-cyp2c19 Compounds with AC50 equal or less than 10 uM are considered active; format: functional
# Sequence of Cytochrome P450 2C19 (P33261 whole entry): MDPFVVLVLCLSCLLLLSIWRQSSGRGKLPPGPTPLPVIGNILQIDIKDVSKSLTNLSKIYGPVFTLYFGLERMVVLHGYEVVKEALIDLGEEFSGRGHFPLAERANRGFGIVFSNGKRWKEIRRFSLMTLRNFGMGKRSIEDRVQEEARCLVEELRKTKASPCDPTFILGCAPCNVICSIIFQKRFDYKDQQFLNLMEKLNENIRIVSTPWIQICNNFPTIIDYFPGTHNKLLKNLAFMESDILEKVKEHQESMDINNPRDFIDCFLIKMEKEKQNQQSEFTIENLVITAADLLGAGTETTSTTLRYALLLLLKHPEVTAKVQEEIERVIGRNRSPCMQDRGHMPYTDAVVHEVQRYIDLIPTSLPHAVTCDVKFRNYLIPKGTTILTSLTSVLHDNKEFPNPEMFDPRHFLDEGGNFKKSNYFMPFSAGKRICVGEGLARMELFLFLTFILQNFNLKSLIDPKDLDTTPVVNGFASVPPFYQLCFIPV
# [10] = target: Cytochrome P450 3A4 (Homo sapiens, UniProt P08684);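 further: CYP3A4 tested as one member of a cytochrome P450 panel screen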
# Sequence of Cytochrome P450 3A4 (P08684 whole entry): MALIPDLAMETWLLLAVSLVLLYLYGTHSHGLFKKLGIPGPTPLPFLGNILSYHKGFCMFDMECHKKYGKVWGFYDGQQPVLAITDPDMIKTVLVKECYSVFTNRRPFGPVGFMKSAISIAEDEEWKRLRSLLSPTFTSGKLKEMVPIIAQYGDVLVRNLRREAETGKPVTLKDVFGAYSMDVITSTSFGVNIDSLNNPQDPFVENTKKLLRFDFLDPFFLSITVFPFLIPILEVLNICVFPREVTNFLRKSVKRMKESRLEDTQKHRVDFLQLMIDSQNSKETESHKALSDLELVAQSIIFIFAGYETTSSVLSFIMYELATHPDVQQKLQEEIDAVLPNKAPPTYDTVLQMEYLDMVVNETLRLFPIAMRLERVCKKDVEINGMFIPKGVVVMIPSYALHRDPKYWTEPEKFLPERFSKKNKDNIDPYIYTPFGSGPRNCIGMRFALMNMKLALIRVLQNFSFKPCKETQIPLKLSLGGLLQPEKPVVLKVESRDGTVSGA
# [11] = reduction of Shn3 3'UTR-driven luciferase in osteoblasts – cell-based, Clone20 osteoblasts, firefly luciferase, cherry-picked, dose response (AID 624132); format: functional;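 further: firefly luciferase luminescence from reporter carrying the Shn3 3'UTR in osteoblasts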
# [12] = non-specific 3'UTR reporter inhibition in Clone20-Shn3RL – cell-based, Renilla luciferase, cherry-picked, counter-screen for Shn3 inhibitor project, dose response (AID 624133); format: functional
# [13] = target: Paired box protein Pax-8 (Homo sapiens, UniProt Q06710); assay: PAX8 transcriptional activity inhibition in RMG-I – RMG-I cells, luciferase, cherry-pick, dose response (AID 687027); format: functional, cell-based;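 further: luciferase reporter driven by Pax8 target thyroperoxidase promoter measured by SteadyGlo luminescence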
# Sequence of Paired box protein Pax-8 (Q06710 whole entry): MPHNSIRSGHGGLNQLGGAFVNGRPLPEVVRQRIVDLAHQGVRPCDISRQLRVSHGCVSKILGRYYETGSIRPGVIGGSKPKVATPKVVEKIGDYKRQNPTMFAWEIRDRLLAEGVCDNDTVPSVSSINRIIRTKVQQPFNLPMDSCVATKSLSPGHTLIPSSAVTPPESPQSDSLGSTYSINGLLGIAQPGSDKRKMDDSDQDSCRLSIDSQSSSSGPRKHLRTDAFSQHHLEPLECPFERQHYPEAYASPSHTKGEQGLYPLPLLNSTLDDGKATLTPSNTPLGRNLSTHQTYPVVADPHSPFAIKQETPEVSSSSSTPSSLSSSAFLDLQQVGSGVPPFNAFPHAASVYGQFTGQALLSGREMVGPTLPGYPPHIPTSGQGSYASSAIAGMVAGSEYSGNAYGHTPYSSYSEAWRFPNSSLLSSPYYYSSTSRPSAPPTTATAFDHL
# [14] = Luminescence Cell-Based Dose Retest to Confirm Inhibitors of Cancer Stem Cells. [Related pubchem assays (depositor defined):AID2717, AID2721]; format: functional; details: Homo sapiens
# [15] = test system: INS1; assay: INS-1E survival protection against cytokine death – cell-based, luminescence, retest, dose response (AID 449756); format: functional; details: Rattus norvegicus;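 further: cell death triggered by IL-1 beta plus TNF-alpha plus IFN-gamma mixture; protective hits raise ATP signal compared with cytokine alone wells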
# [16] = target: Glyceraldehyde-3-phosphate dehydrogenase (Homo sapiens, UniProt P04406)
# Sequence of Glyceraldehyde-3-phosphate dehydrogenase (P04406 whole entry): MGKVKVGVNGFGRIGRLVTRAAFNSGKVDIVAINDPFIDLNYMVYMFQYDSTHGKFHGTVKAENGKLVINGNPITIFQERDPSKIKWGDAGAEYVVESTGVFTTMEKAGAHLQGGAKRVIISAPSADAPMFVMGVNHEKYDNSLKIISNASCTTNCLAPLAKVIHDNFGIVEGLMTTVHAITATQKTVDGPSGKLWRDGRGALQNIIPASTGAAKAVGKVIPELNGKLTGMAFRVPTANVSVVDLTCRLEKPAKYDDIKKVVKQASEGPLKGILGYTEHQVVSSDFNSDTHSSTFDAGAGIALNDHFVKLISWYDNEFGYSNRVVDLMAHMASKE
structure (smiles),measurement,setting,value
Cc1cc(NS(=O)(=O)c2ccc(NC(=O)Nc3ccc4c(c3)OCO4)cc2)no1,IC50,[1],13.3 µM (active)
OC(COc1ccc2ccccc2c1Cl)CN1CCOCC1 (stereo not drawn),EC50,[2],6.79 µM (active)
same,EC50,[3],9.81 µM (active)
same,EC50,[4],4.79 µM (active)
Cn1ccnc1Sc1nc2ccccc2nc1NS(=O)(=O)c1ccccc1,IC50,[1],29.2 µM (active)
COc1ccc(NC(=O)CNC(=O)c2ccc([N+](=O)[O-])cc2)cc1,EC50,[5],15.4 µM (active)
same,EC50,[6],> 112 µM (not active)
Cc1ccc(NC(=O)c2cc(S(=O)(=O)N3CCOCC3)cn2C)cc1F,EC50,[5],> 112 µM (not active)
same,EC50,[6],> 112 µM (not active)
CCC(Sc1nc(C)cc(O)n1)C(=O)Nc1sc2c(c1C#N)CCCC2 (stereo not drawn),EC50,[7],> 350 µM (not active)
same,EC50,[8],> 350 µM (not active)
CCCCC[C@H](CC(=O)NO)C(=O)N[C@@H](C(=O)N1CCC[C@H]1CO)C(C)C,AC50,[9],inconclusive
same,AC50,[10],5.01 µM (inconclusive)
CCOC(=O)c1sc(NC(=O)CSc2nnc[nH]2)c(C#N)c1C,IC50,[1],73 µM (active)
COC(=O)C1=C(c2ccc3ccccc3c2)C[C@@H]2CC[C@H]1N2C(=O)NCC1CC1,AC50,[11],6.86 µM (active)
same,AC50,[12],30.6 µM (active)
CCOc1ccc2c(C)c(Cl)c(=O)oc2c1,EC50,[7],> 350 µM (not active)
same,EC50,[8],> 350 µM (not active)
Cc1ccc2c(c1)C(O)(CC(=O)/C=C/C=C/c1ccccc1)C(=O)N2 (stereo not drawn),EC50,[2],11.8 µM (active)
same,EC50,[3],> 120 µM (not active)
same,EC50,[4],17 µM (active)
C[C@@H]1CCCCO[C@@H](CN(C)C(=O)C2CCCCC2)[C@H](C)CN([C@@H](C)CO)C(=O)c2cc(NS(=O)(=O)c3ccc(Cl)cc3)ccc2O1,AC50,[13],9.05 µM (active)
C[C@@H]1CN([C@@H](C)CO)C(=O)Cc2cc(NC(=O)Nc3ccc(C(F)(F)F)cc3)ccc2O[C@H]1CN(C)S(=O)(=O)c1ccc(F)cc1,AC50,[13],9.39 µM (active)
CCN1C[C@]2(C)CC[C@H](OC)[C@@]34[C@@H]2[C@H](OC(C)=O)C2(OCO[C@@]25C[C@@H](OC)[C@H]2C[C@@]3(O)[C@H]5[C@@H]2OC)[C@H]14,AC50,[9],inconclusive
same,AC50,[10],15.8 µM (inconclusive)
Cc1cc(O)nc(N/N=C/c2ccccn2)n1,AC50,[14],2.89 µM (active)
same,AC50,[15],1.37 µM (active)
same,EC50,[7],40.4 µM (active)
same,EC50,[8],33.1 µM (active)
O=C(O)c1cc(N/N=C/c2ccc(OCc3ccccc3)cc2)ccc1Cl,IC50,[1],20 µM (active)
CC1=NNC(=O)C1CC(=O)N/N=C(\C)c1ccco1 (stereo not drawn),IC50,[1],12.3 µM (active)
Cc1ccc(C)n1-c1ccc(S(N)(=O)=O)cc1,IC50,[16],> 100 µM (not active)
O=C(NCCCO)c1cc(-c2cc(F)c(Cl)cc2Cl)n[nH]1,IC50,[16],> 10 µM (inconclusive)
